Assay results taken from patent US9359196B2, “Antiproliferative compositions comprising curcumin analogs and methods of producing and using same” (The Board of Regents of the University of Oklahoma, priority 2009, dated 2016).
Where two headings read alike, the source gives them in different places.

Tests used:
[1] = system: lung adenocarcinoma cell line H441; assay: Cell proliferation (hexosaminidase assay) in lung adenocarcinoma H441 cells, Example 1; type: cell-based, human
Experimental: Cell Proliferation Studies: In order to assess the anti-proliferative activity of the synthesized compounds, an in vitro cell culture system of lung adenocarcinoma cell line H441 was used. The cell detachment and anti-proliferative activity was measured as a decrease in hexosaminidase enzyme activity associated with remainder of the adhered cells. [Landegren, 1984] […] The concentration versus cell proliferation plots were analyzed by an exponential fit (Table 1). The results were compared with the anti-proliferative activity of compound 1.
Cell Culture and drug treatment: Human lung adenocarcinoma cell line NCI-H441 (ATCC Number: HTB-174) was obtained from the American Type Culture Collection (Manassas, Va.). H441 cells were maintained at 37° C. with 5% CO2 in McCoy's 5A Medium (Invitrogen, Carlsbad, Calif.) supplemented with 5% heat-inactivated fetal bovine serum (FBS). All media contained gentamicin at 50 μg/ml (GIBCO Laboratories, Grand Island, N.Y.). Other cells lines (PANC-1, MiaPaCa-2 and PC-3) were also similarly maintained, except that the cell culture medium was RPMI 1640 instead of McCoy's.
To evaluate the anti-proliferative activity of synthesized bis(2-fluorobenzylidene)-4-piperidone and its derivatives, the cells were seeded in 96-well flat-bottom tissue culture plates at a density of 10×10^3 cells per well. The cells were allowed to attach and grow overnight. The test compounds were solubilized in dimethyl sulfoxide (DMSO), filtered through 0.2 μm nylon filter and added to cells at 1, 10, 25 and 100 μM concentrations in culture medium supplemented with 5% FBS. The DMSO concentration was maintained at 0.1% per well. Control wells received equivalent volume of DMSO without any test compounds. The cells were allowed to remain in the treatment medium for 24, 48 and 72 hours.
Cell Proliferation: The total number of cells after the treatment period was estimated by the hexosaminidase assay. [Landegren, 1984] Briefly, the medium was removed and hexosaminidase substrate solution in citrate buffer pH 5 (7.5 mM), […] (Calbiochem, San Diego, Calif.) was added at 60 μl per well. The plate was incubated at 37° C. in 100% humidity for 30 minutes, before stopping the reaction with 90 μl of 50 mM glycine containing 5 mM of EDTA (pH 10.4). The absorbance was measured at 405 nm. The experiments were conducted in triplicate, and repeated at least twice. The data were analyzed as percent of control, where the control wells were treated with equivalent amounts of DMSO alone, and the analyzed data was presented as average±standard error of mean. The differences among mean values were deemed significant at p<0.05.
For IC50 calculations, a plot between the drug concentration and hexosaminidase activity was generated and the data was fitted either linearly or exponentially. The best fit was used for further processing of data.

[2] = 24 h of treatment, 1-100 μM tested, fitted plot, read-out: IC50 value
[3] = Homo sapiens, NCI-H441, 24 h of treatment, 1-100 μM tested, fitted plot, read-out: IC50 value
[4] = Homo sapiens, NCI-H441, 24 h of treatment, read-out: IC50 (grouping relative to compound 1)

| IC50 [1, 2] [µM] | IC50 [1, 3] [µM] | IC50 [1, 4] [µM] | melting point [°C] | Structure (SMILES) | anti-proliferative activity in words, relative to the comparator named [1] |
| --- | --- | --- | --- | --- | --- |
| 69 | – | – | – | O=C(O)CCC(=O)N1CC(=Cc2ccccc2F)C(=O)C(=Cc2ccccc2F)C1 [Compound 12] | – |
| – | 50 | > 50 | 162 to 163 | Cc1ccc(S(=O)(=O)N2CC(=Cc3ccccc3F)C(=O)C(=Cc3ccccc3F)C2)cc1 [Compound 20, N-(4-Methylbenzenesulfonyl)-3,5-bis(2-fluorobenzylidene)-4-piperidone] | – |
| – | 58 | > 50 | – | CCCCCCCCCCC=CC(CC(=O)O)C(=O)N1CC(=Cc2ccccc2F)C(=O)C(=Cc2ccccc2F)C1 (stereo not shown) [Compound 26, 3-[3,5-Bis-(2-fluorobenzylidene)-4-oxo-piperidine-1-carbonyl]-pentadec-4-enoic acid] | acceptable anti-proliferative activity |
| 101 | – | – | – | CN(C)c1ccc(C=C2CNCC(=Cc3ccc(N(C)C)cc3)C2=O)cc1 [Compound 9, 3,5-Bis[4-(N,N-dimethylaminoenzylidene)]-4-piperidone] | – |
| – | 55 | > 50 | 96 to 98 | O=C1C(=Cc2ccccc2F)CN(C(=O)C2CCCCC2C(=O)O)CC1=Cc1ccccc1F (stereo not shown) [Compound 17, 2-[3,5-Bis-(2-fluorobenzylidene)-4-oxo-piperidine-1-carbonyl]-cyclohexanecarboxylic acid] | – |
| – | 310 | > 50 | – | O=C(O)COCC(=O)N1CC(=Cc2ccccc2F)C(=O)C(=Cc2ccccc2F)C1 [Compound 14, 2-[3,5-Bis-(2-fluorobenzylidene)-4-oxo-piperidin-1-yl]-2-oxo-ethoxyacetic acid] | less potent as compared to compound 15 |
| – | 5 | < 30 | – | O=C1C(=Cc2ccccc2Cl)CNCC1=Cc1ccccc1Cl [Compound 3, 3,5-Bis(2-chlorobenzylidene)-4-piperidone] | more anti-proliferative than the 2-fluoro substituted compound 1 |
| – | 56 | > 50 | – | O=C1C(=Cc2ccccc2F)CN(C(=O)c2ccccc2C(=O)O)CC1=Cc1ccccc1F [Compound 16, 2-[3,5-Bis-(2-fluorobenzylidene)-4-oxo-piperidine-1-carbonyl]-benzoic acid] | very potent analog |
| – | 50 | – | – | O=C1C(=Cc2cccc(Cl)c2)CNCC1=Cc1cccc(Cl)c1 [Compound 6, 3,5-Bis(3-chlorobenzylidene)-4-piperidone] | little change in IC50 as compared to that of compound 1 |
| – | 47 | – | – | CCCCCCCCCCCCC=CC(CC(=O)O)C(=O)N1CC(=Cc2ccccc2F)C(=O)C(=Cc2ccccc2F)C1 (stereo not shown) [Compound 27, 3-[3,5-Bis-(2-fluorobenzylidene)-4-oxo-piperidine-1-carbonyl]-heptadec-4-enoic acid] | acceptable anti-proliferative activity |
| – | 6 | < 30 | – | O=C1C(=Cc2ccccc2Br)CNCC1=Cc1ccccc1Br [Compound 4, 3,5-Bis(2-bromobenzylidene)-4-piperidone] | – |
| – | 64 | > 50 | – | CCCCCCCCCCCCCCCCNC(=O)CCC(=O)N1CC(=Cc2ccccc2F)C(=O)C(=Cc2ccccc2F)C1 [Compound 24, 4-[3,5-Bis-(2-fluorobenzylidene)-4-oxo-piperidin-1-yl]-N-hexadecyl-4-oxo-butyramide] | loss of anti-proliferative activity |
| – | 60 | > 50 | 167 to 168 | O=C(O)CCCC(=O)N1CC(=Cc2ccccc2F)C(=O)C(=Cc2ccccc2F)C1 [Compound 15, 5-[3,5-Bis-(2-fluorobenzylidene)-4-oxo-piperidin-1-yl]-5-oxo-pentanoic acid] | – |
| – | 49 | – | – | O=CN1CC(=Cc2ccccc2F)C(=O)C(=Cc2ccccc2F)C1 [Compound 18, N-Formyl-3,5-bis(2-fluorobenzylidene)-4-piperidone] | performed slightly better than compound 1 |
| – | 130 | > 50 | – | O=C1C(Cc2ccccc2F)CNCC1Cc1ccccc1F (stereo not shown) [Compound 11, 3,5-Bis(2-fluorobenzyl)-4-piperidone] | significantly less anti-proliferative activity as compared to compound 1 |
| – | 54 | > 50 | – | CC(=O)N1CC(=Cc2ccccc2F)C(=O)C(=Cc2ccccc2F)C1 [Compound 19, N-Acetyl-3,5-bis(2-fluorobenzylidene)-4-piperidone] | performed slightly better than compound 1 |
| 46 | – | – | – | O=C(CN1CC(=Cc2ccccc2F)C(=O)C(=Cc2ccccc2F)C1)NCc1ccc(F)cc1 [Compound 23, 2-[3,5-Bis(2-fluorobenzylidene-4-piperidone-1-yl)-N-(4-fluorobenzyl)acetamide]] | – |
| – | 12 | < 30 | – | O=C1C(=Cc2ccccc2)CNCC1=Cc1ccccc1 [Compound 2, 3,5-Bis(benzylidene)-4-piperidone] | – |
| – | 45.7 | – | – | O=C1C(=Cc2ccc(F)cc2)CNCC1=Cc1ccc(F)cc1 [Compound 7, 3,5-Bis(4-fluorobenzylidene)-4-piperidone] | – |
| 79 | – | – | – | O=C(CCC(=O)N1CC(=Cc2ccccc2F)C(=O)C(=Cc2ccccc2F)C1)N[C@H]1C(O)O[C@H](CO)[C@@H](O)[C@@H]1O (stereo partly shown) [Compound 22, 4-Oxo-4-[3,5-bis(2-fluorobenzylidene-4-piperidonylcarbonyl)-2-glucosepropanamide]] | reduced anti-proliferative activity |
| – | 29 | < 30 | – | O=C(O)C=CC(=O)N1CC(=Cc2ccccc2F)C(=O)C(=Cc2ccccc2F)C1 [Compound 13, 4-[3,5-Bis-(2-fluorobenzylidene)-4-oxo-piperidin-1-yl]-4-oxo-2-butenoic acid] | significant enhancement in potency |
| – | 87 | > 50 | – | O=C1C(=Cc2ccc(Cl)cc2)CNCC1=Cc1ccc(Cl)cc1 [Compound 8, 3,5-Bis(4-chlorobenzylidene)-4-piperidone] | no change in the anti-proliferative activity of 8 compared to that of 7 |
| – | 84 | > 50 | – | CCCCCCCCCCCCCCCCC=CC(CC(=O)O)C(=O)N1CC(=Cc2ccccc2F)C(=O)C(=Cc2ccccc2F)C1 (stereo not shown) [Compound 28, 3-[3,5-Bis-(2-fluorobenzylidene)-4-oxo-piperidine-1-carbonyl]-heneicos-4-enoic acid] | total loss of activity |
| – | 124 | > 50 | – | OC1C(=Cc2ccccc2F)CNCC1=Cc1ccccc1F (stereo not shown) [Compound 10, 3,5-Bis(2-fluorobenzylidene)-4-hydroxy-piperidine] | significantly less anti-proliferative activity as compared to compound 1 |

| Structure (SMILES) | IC50 [1, 2] [µM] | IC50 [1, 3] [µM] | IC50 [1, 4] [µM] | melting point [°C] | anti-proliferative activity in words, relative to the comparator named [1] |
| --- | --- | --- | --- | --- | --- |
| O=C1C(=Cc2ccccc2[N+](=O)[O-])CNCC1=Cc1ccccc1[N+](=O)[O-] [Compound 5, 3,5-Bis(2-nitrobenzylidene)-4-piperidone] | – | 93 | > 50 | – | the activity remained more or less the same |
